Results: patent US20100028892A1, “YEAST BASED EXPRESSION OF PROTEASES AND METHODS OF USE” (Burnham Institute for Medical Research, priority 2008, published 2010)

Tests used:
Caspase-8 = Caspase-8 (Homo sapiens, UniProt Q14790); experiment: in vitro biochemical assay with purified recombinant Caspase-8 and fluorigenic substrate Ac-IETD-AFC; details: purified recombinant Caspase-8, Ac-IETD-AFC, various concentrations of compound
Protocol: The results of a HTS of a yeast-based NALP1 inflammasome assay are shown in FIG. 12 consisting of FIGS. 12A-G (A) NALP1 yeast screen controls. Yeast cells containing ASC/Nalp1ΔLRR/Caspase1 were plated at 1.88×10^5 cells/well in a 384 well plate in media containing 1% galactose/2% raffinose, with (squares) or without (diamonds) 400 μg/ml X-gal substrate. The plates were incubated for 72 hrs at 30° C. and the plates were read at OD620. (B) Yeast Screen of LOPAC compound library plate 4 for NALP1. Yeast cells containing ASC/NALP1/Caspase1 were plated at 1.88×10^5 cells/well in a 384 well plate in media containing 1% galactose, 2% raffinose, with or without 400 μg/ml X-gal. The plates were incubated for 72 hrs at 30° C. and the plates were read at OD620. The compounds were screened at 100 μM and “hits” were defined by >50% reduction (as shown). (C) Validation of HTS assay for Fas-FADD-Caspase-8 system. Yeast cells containing Fas/FADD/Caspase-8 were cultured in 384 well plates as above with (blue squares) or without (purple diamonds) Xgal substrate, the plates were incubated for 72 hrs at 30° C. and analyzed as above. (D) Example of library screening plate for Fas-FADD-Caspase-8. […] Plates were incubated for 48 hrs at 30° C. and OD620 values recorded. […] Data represent relative fluorescence units (RFU) assessed in the absence or presence of various concentrations of compound (CID-2531).

Fas/FADD/Caspase-8 = target: T1, Fas/FADD/Caspase-8 (Homo sapiens, UniProt P25445+Q13158+Q14790); experiment: yeast Fas/FADD/Caspase-8 HTS assay with counter-screen strains (lacZ, Asc/Caspase-1, empty vector); assay type: cell-based; details: 384 well, OD620, 2-4 days at 30° C., versus lacZ, Asc/Caspase-1 and empty vector strains
T1 construct: a small amount of each full-length Caspase construct was expressed with a large amount of adaptor protein FADD; HA (C); expressed in transfected cells; host or cells: Saccharomyces cerevisiae EGY48
T1 sequence (Q14790 whole entry): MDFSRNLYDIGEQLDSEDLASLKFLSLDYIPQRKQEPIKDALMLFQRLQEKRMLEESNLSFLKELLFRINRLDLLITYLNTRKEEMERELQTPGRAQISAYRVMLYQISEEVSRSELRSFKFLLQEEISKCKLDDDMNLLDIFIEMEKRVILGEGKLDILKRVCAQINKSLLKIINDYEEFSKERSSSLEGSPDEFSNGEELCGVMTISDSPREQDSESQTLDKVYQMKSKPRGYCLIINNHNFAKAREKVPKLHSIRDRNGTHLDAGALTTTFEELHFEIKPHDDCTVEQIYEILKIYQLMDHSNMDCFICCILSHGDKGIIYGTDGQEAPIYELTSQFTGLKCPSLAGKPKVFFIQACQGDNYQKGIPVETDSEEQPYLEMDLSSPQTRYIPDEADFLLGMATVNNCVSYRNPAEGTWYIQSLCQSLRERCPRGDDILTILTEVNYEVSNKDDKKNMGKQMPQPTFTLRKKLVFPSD
T1 sequence (Q13158 whole entry): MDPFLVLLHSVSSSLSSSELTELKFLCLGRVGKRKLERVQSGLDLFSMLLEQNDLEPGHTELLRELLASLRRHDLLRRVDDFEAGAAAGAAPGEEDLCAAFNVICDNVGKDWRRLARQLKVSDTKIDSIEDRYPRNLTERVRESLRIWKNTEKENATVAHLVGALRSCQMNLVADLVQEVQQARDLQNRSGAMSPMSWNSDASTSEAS
T1 sequence (P25445 26-335): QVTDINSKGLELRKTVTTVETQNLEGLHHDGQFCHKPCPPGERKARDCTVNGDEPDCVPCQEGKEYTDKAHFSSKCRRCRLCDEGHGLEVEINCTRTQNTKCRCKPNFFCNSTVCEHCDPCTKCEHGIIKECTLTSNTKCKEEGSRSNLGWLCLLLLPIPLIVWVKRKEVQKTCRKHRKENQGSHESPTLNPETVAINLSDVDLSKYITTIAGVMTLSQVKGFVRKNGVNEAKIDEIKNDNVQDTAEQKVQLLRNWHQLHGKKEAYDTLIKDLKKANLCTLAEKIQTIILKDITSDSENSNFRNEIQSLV
Protocol: The results of a HTS of a yeast-based NALP1 inflammasome assay are shown in FIG. 12 consisting of FIGS. 12A-G (A) NALP1 yeast screen controls. Yeast cells containing ASC/Nalp1ΔLRR/Caspase1 were plated at 1.88×10^5 cells/well in a 384 well plate in media containing 1% galactose/2% raffinose, with (squares) or without (diamonds) 400 μg/ml X-gal substrate. The plates were incubated for 72 hrs at 30° C. and the plates were read at OD620. (B) Yeast Screen of LOPAC compound library plate 4 for NALP1. Yeast cells containing ASC/NALP1/Caspase1 were plated at 1.88×10^5 cells/well in a 384 well plate in media containing 1% galactose, 2% raffinose, with or without 400 μg/ml X-gal. The plates were incubated for 72 hrs at 30° C. and the plates were read at OD620. The compounds were screened at 100 μM and “hits” were defined by >50% reduction (as shown). (C) Validation of HTS assay for Fas-FADD-Caspase-8 system. Yeast cells containing Fas/FADD/Caspase-8 were cultured in 384 well plates as above with (blue squares) or without (purple diamonds) Xgal substrate, the plates were incubated for 72 hrs at 30° C. and analyzed as above. (D) Example of library screening plate for Fas-FADD-Caspase-8. […] Plates were incubated for 48 hrs at 30° C. and OD620 values recorded. […] Data represent relative fluorescence units (RFU) assessed in the absence or presence of various concentrations of compound (CID-2531). […]

Caspases = experiment: validation of 384 well yeast-based Caspase-dependent lacZ reporter gene assays with pharmacological inhibitors; assay type: cell-based, human; details: 384 well yeast-based Caspase-dependent reporter gene assay
From the text: When converting the yeast-based protease reporter system to HTS assay, conditions from agar plates to liquid medium in microtiter wells must be revised. This revision comprises, utilizing the measured β-galactosidase produced by yeast carrying the Caspase-cleavable reporter proteins, and assaying the colorimetric product (OD620nm) derived from X-gal substrate in 384 well plates, as a measure of the lacZ reporter gene activity. We compared β-galactosidase activity produced in the presence or absence of the broad-spectrum caspase inhibitory compound, zVAD-fmk ([…]-Valinyl-Alaninyl-Aspartyl-fluoromethylketone). Among the variables that were initially interrogated were initial seeding cell density, time of culture, concentration of X-gal substrate, and supporting carbohydrate (raffinose vs mannose). Note that it was determined that it is not advisible to employ glucose in yeast media because it represses the GAL1 promoter used in some plasmids. An example of data obtained using the plural-component system of Fas/FADD/Caspase-8 is presented. All variables tested altered the signal:noise ratio of the assay. […] For the two-component system of ASC/Caspase-1 and for the plural-component system of NALP1ΔLRR/ASC/Caspase-1, the same conditions were optimal, among those tested (not shown). For the Fas/Fadd/Caspase 8, the caspase and adaptor protein (Fadd) were expressed at relatively small amounts (a weak promoter and low copy number plasmid are used) and the upstream activator (Fas) was expressed in a large amount.
The 384 well assay format was further validated, using zVAD-fmk, a peptidyl inhibitor with broad-spectrum activity against animal Caspases. […]
The validation results of a yeast-based Caspase assay using a pharmacological inhibitor of Caspases are shown in FIG. 11 consisting of FIGS. 11A-C (A) Caspase-1, single-component assay. […] For (A-C), relative absorbance at 620 nm was measured (mean ±std dev; n=3-5 independent experiments). […]
Assays were performed in a total volume of […] in triplicate. […] Absorbance at 620 nm was measured 2-3 days after culture at 30° C.

Sequence of Caspase-8 (Q14790 217-479): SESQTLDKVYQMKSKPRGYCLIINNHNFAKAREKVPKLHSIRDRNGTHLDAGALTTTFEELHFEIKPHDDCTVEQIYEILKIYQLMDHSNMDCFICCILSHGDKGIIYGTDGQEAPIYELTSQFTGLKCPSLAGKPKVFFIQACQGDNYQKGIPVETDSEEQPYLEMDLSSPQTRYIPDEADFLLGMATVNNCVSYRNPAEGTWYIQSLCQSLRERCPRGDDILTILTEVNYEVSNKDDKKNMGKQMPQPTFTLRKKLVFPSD

| SMILES | selective inhibition of Fas-FADD-Caspase-8 (Fas/FADD/Caspase-8) | further results |
| --- | --- | --- |
| Clc1ccc(C(c2ccc(Cl)cc2)n2cc[n+](CC(OCc3ccc(Cl)cc3Cl)c3ccc(Cl)cc3Cl)c2)cc1 (stereo not shown) [CID-2531] |  | inhibition of Caspase-8 (relative fluorescence units) (Caspase-8): evidence of inhibition of Caspase-8 |
| c1ccc2c(c1)[I+]c1ccccc1-2 [CID-3101] | evidence of selective inhibition |  |
| C[n+]1cc2c3c(ccc2c2ccc4cc5c(cc4c21)OCO5)OCO3 [CID-5154] | evidence of selective inhibition |  |
| CCCC[C@@H](C=O)NC(=O)[C@H](CC(C)C)NC(=O)OCc1ccccc1 [Calpain inhibitor, calpeptin] |  | effect on β-galactosidase activity / activation of the lacZ reporter gene (Caspases): did not suppress activation of the lacZ reporter gene |
